Source: PubChem BioAssay (NCI)
Several values for one entry are separate records, joined by “and”; a condition that tells them apart may be missing. Identical values can stand only once.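 All cell lines were grown in 96-well plates and treated with compound for 48 hours. Abbreviation: GI50, concentration required for 50% inhibition of growth. TGI denotes the concentration required for complete inhibition of growth.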

What was measured:
Assay in all cases: DTP human tumour cell line panel, 48 h
HCT-116 colon = test system: HCT-116 colon
NCI/ADR-RES ovarian = test system: NCI/ADR-RES ovarian
SR leukemia = test system: SR leukemia
K-562 leukemia = test system: K-562 leukemia
HCC-2998 colon = test system: HCC-2998 colon
M14 melanoma = test system: M14 melanoma
SNB-75 CNS = test system: SNB-75 CNS
SF-295 CNS = test system: SF-295 CNS
KM12 colon = test system: KM12 colon
HT29 colon = test system: HT29 colon
SK-MEL-28 melanoma = test system: SK-MEL-28 melanoma
SF-539 CNS = test system: SF-539 CNS
786-0 renal = test system: 786-0 renal
NCI-H226 lung = test system: NCI-H226 lung
MALME-3M melanoma = test system: MALME-3M melanoma
HOP-92 NSCLC = test system: HOP-92 NSCLC

SMILES	TGI (HCT-116 colon)	TGI (NCI/ADR-RES ovarian)	TGI (SR leukemia)	TGI (K-562 leukemia)	TGI (HCC-2998 colon)	TGI (M14 melanoma)	TGI (SNB-75 CNS)	TGI (SF-295 CNS)	TGI (KM12 colon)	TGI (HT29 colon)	TGI (SK-MEL-28 melanoma)	TGI (SF-539 CNS) [µM]	TGI (786-0 renal)	TGI (NCI-H226 lung)	TGI (MALME-3M melanoma)	TGI (HOP-92 NSCLC)	GI50 (NCI/ADR-RES ovarian)	GI50 (HCC-2998 colon)	GI50 (KM12 colon)	GI50 (SK-MEL-28 melanoma)
CCOCCOCCOCc1nc(C#N)c(N)o1	> 100 µM	> 100 µM	> 100 µM	> 100 µM	> 100 µM	> 100 µM	> 100 µM	> 100 µM	> 100 µM	> 100 µM	> 100 µM	> 100	> 100 µM	> 100 µM	–	–	–	–	–	–
COc1ccc(C(CC2(c3ccc(OC)cc3)SCCCS2)NC(C)=O)cc1 (stereo not given)	> 100 µM	73.4 µM	> 100 µM	> 100 µM	> 100 µM	> 100 µM	> 100 µM	> 100 µM	> 100 µM	> 100 µM	> 100 µM	> 100	> 100 µM	–	> 100 µM	> 100 µM	–	–	–	–
Cc1ccc(CC2(C(=O)O)Cc3ccc(C)cc3C2)cc1 (stereo not given)	> 100 µM	> 100 µM	> 100 µM	> 100 µM	> 100 µM	> 100 µM	> 100 µM	> 100 µM	> 100 µM	> 100 µM	> 100 µM	> 100	> 100 µM	> 100 µM	> 100 µM	–	–	–	–	–
CCOC(=O)c1cc(C2CCN(c3ccccc3)C2=O)c(/C(O)=C/C(C)=O)[nH]1 (stereo not given)	> 100 µM	> 100 µM	> 100 µM	> 100 µM	> 100 µM	> 100 µM	> 100 µM	> 100 µM	> 100 µM	> 100 µM	> 100 µM	31.9	> 100 µM	> 100 µM	> 100 µM	–	–	–	–	–
Cc1ccc(O)c(C(c2cccc(C(c3cc(C)ccc3O)c3cc(C)ccc3O)c2)c2cc(C)ccc2O)c1	3.34 µM	7.66 µM	7.55 µM	3.37 µM	3.48 µM	3.45 µM	3.54 µM	3.91 µM	3.23 µM	3.16 µM	3.46 µM	3.35	3.18 µM	3.31 µM	3.77 µM	–	–	–	–	–
CN1C(=O)C2(C)SC1(c1ccccc1)C1C(=O)N(c3ccccc3)C(=O)C12 (stereo not given)	> 100 µM	> 100 µM	> 100 µM	> 100 µM	–	> 100 µM	–	> 100 µM	> 100 µM	> 100 µM	> 100 µM	> 100	> 100 µM	> 100 µM	> 100 µM	> 100 µM	–	–	–	–
N#Cc1ccc(C(O)C(F)(F)c2nc3ccccc3o2)cc1 (stereo not given)	> 100 µM	> 100 µM	> 100 µM	45.7 µM	> 100 µM	> 100 µM	> 100 µM	> 100 µM	> 100 µM	> 100 µM	> 100 µM	> 100	> 100 µM	> 100 µM	–	> 100 µM	–	–	–	–
CC1=NN(c2nc(N)nc(CN3CCOCC3)n2)C(C)(C)C1	> 100 µM	> 100 µM	> 100 µM	> 100 µM	> 100 µM	> 100 µM	> 100 µM	> 100 µM	> 100 µM	> 100 µM	> 100 µM	> 100	31.2 µM	> 100 µM	–	> 100 µM	–	–	–	–
CCOc1cc(C2CC(c3ccc(NS(=O)(=O)c4cc([N+](=O)[O-])ccc4C)cc3)=NN2S(=O)(=O)c2cc([N+](=O)[O-])ccc2C)ccc1O (stereo not given)	> 100 µM	> 100 µM	> 100 µM	> 100 µM	–	> 100 µM	–	> 100 µM	> 100 µM	> 100 µM	> 100 µM	> 100	98.7 µM	> 100 µM	> 100 µM	60.7 µM	–	–	–	–
O=c1ccc2ccc(OP(=O)(O)O)cc2o1	> 100 µM	> 100 µM	> 100 µM	> 100 µM	> 100 µM	> 100 µM	> 100 µM	> 100 µM	> 100 µM	> 100 µM	> 100 µM	> 100	> 100 µM	> 100 µM	> 100 µM	–	–	–	–	–
CN=C1Nc2ccccc2C(=O)N2CSCC12 (stereo not given)	> 100 µM	> 100 µM	> 100 µM	> 100 µM	> 100 µM	> 100 µM	> 100 µM	> 100 µM	> 100 µM	> 100 µM	> 100 µM	–	> 100 µM	> 100 µM	> 100 µM	–	–	–	–	–
CC(=O)NC1C(OC(C)C(=O)NC(C)C(=O)NC(CCC(=O)NCCCCCNc2ccc([N+](=O)[O-])c3[nH]c4ccccc4c(=O)c23)C(N)=O)C(O)C(CO)OC1(C)OCc1ccccc1 (stereo not given)	> 100 µM	> 100 µM	> 100 µM	> 100 µM	> 100 µM	> 100 µM	> 100 µM	> 100 µM	> 100 µM	> 100 µM	–	> 100	> 100 µM	> 100 µM	> 100 µM	–	–	–	–	–
CCCCN1C(=O)C2Cc3c([nH]c4ccccc34)C(c3cccc(O)c3)N2C1=O (stereo not given)	34.9 µM	36.2 µM	45.6 µM	47.5 µM	34.2 µM	34.4 µM	32.7 µM	31.9 µM	36.2 µM	35.7 µM	34.3 µM	34.3	34.4 µM	42.3 µM	–	33.8 µM	–	–	–	–
NC(=O)C1CCCN1C(=O)C(Cc1cnc[nH]1)NC(=O)C1CCCC1 (stereo not given)	> 100 µM	> 100 µM	> 100 µM	> 100 µM	> 100 µM	> 100 µM	> 100 µM	> 100 µM	> 100 µM	> 100 µM	> 100 µM	–	> 100 µM	> 100 µM	> 100 µM	> 100 µM	–	–	–	–
CCn1cc2c(=O)n3ncn(-c4ccc(Br)cc4)c3nc2n1	> 100 µM	> 100 µM	> 100 µM	> 100 µM	> 100 µM	> 100 µM	45.8 µM	> 100 µM	> 100 µM	> 100 µM	> 100 µM	–	> 100 µM	> 100 µM	> 100 µM	–	–	–	–	–
Cc1ccc2c(c1)C(=C(C#N)C#N)CCCS2(=O)=O	> 100 µM	> 100 µM	> 100 µM	> 100 µM	> 100 µM	> 100 µM	> 100 µM	> 100 µM	> 100 µM	> 100 µM	> 100 µM	> 100	> 100 µM	> 100 µM	–	> 100 µM	–	–	–	–
COc1ccc(N=c2oc3ccccc3cc2C(N)=O)cc1	> 100 µM	> 100 µM	> 100 µM	> 100 µM	> 100 µM	> 100 µM	> 100 µM	75.1 µM	> 100 µM	> 100 µM	> 100 µM	63.6	68.8 µM	> 100 µM	–	> 100 µM	–	–	–	–
O=C(Nc1ccc(C(F)(F)F)cc1)NC(F)(F)F	> 100 µM	> 100 µM	> 100 µM	> 100 µM	> 100 µM	> 100 µM	> 100 µM	–	–	> 100 µM	> 100 µM	> 100	> 100 µM	–	–	–	–	–	–	–
O=C1/C(=C\c2ccc(Cl)cc2)N=C(c2ccccc2)N1n1c(=O)cn[nH]c1=S	> 100 µM	> 100 µM	72.6 µM	54.9 µM	> 100 µM	> 100 µM	–	> 100 µM	> 100 µM	> 100 µM	> 100 µM	> 100	39.7 µM	–	> 100 µM	–	–	–	–	–
CC1=NN(c2cccc(Cl)c2)C2(SCC(=O)N2c2nc3ccccc3s2)C1=CC=Cc1ccccc1 (stereo not given)	73.7 µM	> 100 µM	61.8 µM	> 100 µM	> 100 µM	> 100 µM	–	> 100 µM	> 100 µM	> 100 µM	> 100 µM	> 100	> 100 µM	> 100 µM	–	45.5 µM	–	–	–	–
COc1ccc(S(=O)(=O)N2C(=O)CCC2C(=O)NC(N)=O)cc1 (stereo not given)	> 100 µM	> 100 µM	> 100 µM	> 100 µM	–	> 100 µM	1.55 µM	> 100 µM	> 100 µM	> 100 µM	> 100 µM	> 100	> 100 µM	> 100 µM	> 100 µM	> 100 µM	–	–	–	–
COc1ccc2c3c1OC1C(F)C=CC4(O)C(C2)NCCC314 (stereo not given)	3.01 µM	38.3 µM	4.42 µM	> 100 µM	12.8 µM	4.93 µM	6.58 µM	21.9 µM	13 µM	10.9 µM	10.7 µM	–	3.27 µM	30.8 µM	5.56 µM	20.2 µM	–	–	–	–
CSC12c3cc(C)n(-c4ccc([N+](=O)[O-])cc4)c3CC(C)(C)CN1C(=O)C2Oc1ccccc1 (stereo not given)	> 100 µM	> 100 µM	> 100 µM	> 100 µM	> 100 µM	> 100 µM	> 100 µM	> 100 µM	> 100 µM	–	> 100 µM	> 100	> 100 µM	> 100 µM	–	> 100 µM	–	–	–	–
C=CCOC(=O)CC[C@H](NC(=O)[C@@H](CCC(F)(F)F)Cc1ccc(O)cc1)C(=O)OCC=C	> 100 µM	> 100 µM	> 100 µM	> 100 µM	–	42.6 µM	77.2 µM	> 100 µM	> 100 µM	> 100 µM	45.6 µM	> 100	> 100 µM	> 100 µM	39.1 µM	> 100 µM	–	–	–	–
CC(=O)c1nc2ccccc2n1C(C)C(=O)c1ccccc1 (stereo not given)	> 100 µM	> 100 µM	> 100 µM	> 100 µM	–	> 100 µM	> 100 µM	> 100 µM	> 100 µM	> 100 µM	> 100 µM	> 100	> 100 µM	> 100 µM	> 100 µM	> 100 µM	–	–	–	–
CC1OC(OC2C(OC(=O)[C@]34CCC(C)(C)C[C@H]3C3=CC[C@@H]5[C@@]6(C)CC[C@H](OC7OC(C(=O)O)C(O)C(O)C7O)C(C)(C)[C@@H]6CC[C@@]5(C)[C@]3(C)C[C@H]4O)OCC(O)C2O)C(O)C(O)C1OC1OCC(O)C(O)C1O (stereo not given in full)	28.1 µM and 22.1 µM	27.1 µM and 19 µM	23 µM and > 100 µM	35.4 µM and 36.3 µM	12.7 µM and 3.07 µM	28.1 µM and 21.6 µM	29.9 µM and 31.3 µM	29.6 µM and 22.1 µM	22.3 µM and 14.2 µM	20.2 µM and 17 µM	29.1 µM and 22 µM	–	28.8 µM and 26.1 µM	19.2 µM and 25.9 µM	27.8 µM and 25.6 µM	26.9 µM and 24.4 µM	13 µM and 5.11 µM	4.02 µM and 1.4 µM	9.85 µM and 3.45 µM	14.9 µM and 7.34 µM
CC1=C(C(=O)OC2CC3CCC2(C)C3(C)C)C2Nc3ccccc3N(C)C2O1 (stereo not given)	7.36 µM	12.6 µM	9.52 µM	> 29.4 µM	3.91 µM	3.22 µM	11.5 µM	3.04 µM	8.67 µM	3.08 µM	16 µM	–	9.09 µM	39.3 µM	–	20.8 µM	–	–	–	–
N#CC12C(=O)N3C(=NC(c4ccco4)NC3c3ccco3)C1(C#N)C(c1ccco1)NC1=C2CCCC1 (stereo not given)	> 100 µM	> 100 µM	> 100 µM	> 100 µM	> 100 µM	> 100 µM	–	> 100 µM	> 100 µM	> 100 µM	> 100 µM	–	> 100 µM	> 100 µM	> 100 µM	> 100 µM	–	–	–	–
COC(=O)CCC(=O)c1ccc2c(c1)CCC2	> 100 µM	> 100 µM	> 100 µM	> 100 µM	> 100 µM	> 100 µM	> 100 µM	> 100 µM	–	> 100 µM	> 100 µM	> 100	> 100 µM	–	> 100 µM	> 100 µM	–	–	–	–
Cc1c(C)c2ccc(OCC(O)COC(C)C)c(C)c2oc1=O (stereo not given)	36 µM	> 100 µM	87.4 µM	71.4 µM	43.4 µM	42 µM	–	> 100 µM	> 100 µM	> 100 µM	> 100 µM	–	> 10 µM	–	30.3 µM	> 100 µM	–	–	–	–
